According to patent US20140127158A1, “COMBINATION THERAPY FOR HEPATITIS C VIRUS INFECTION” (National Health Research Institute, priority 2012, published 2014):
Read-outs that look alike come from different tables or passages of the source.

Assays:
[1] = test system: HCV genotype 1b replicon (Con1); test: Inhibitory assay for HCV replicons (luciferase), genotype 1b Con1; assay type: cell-based, Hepatitis C virus
Method: (§1) (2) Cell culture and HCV inhibitors. Huh-7.5 cells and their derivative HCV replicon cell lines were maintained in Dulbecco's modified Eagle's medium (DMEM, Gibco/BRL) that was supplemented with 100 U/mL penicillin-streptomycin (Gibco/BRL), 0.1 mM nonessential amino acid (NEAA, Gibco/BRL) and 10% fetal bovine serum (FBS) heat inactivated at 37° C. in 5% CO2. The HCV replicon cell lines were isolated from colonies as described in Lohman et al., Science 285:110-3 (1999). The culture medium for the replicon cells was additionally supplemented with 0.25 to 0.5 mg/mL of G418, unless specified otherwise. Compound DBPR110 and sofosbuvir were synthesized at the Institute of Biotechnology and Pharmaceutical Research at the National Health Research Institutes in Taiwan. Telaprevir (Lin et al., Antimicrob Agents Chemother, 50:1813-22 (2006)) was purchased from Acme Biosciences (Belmont, Calif.). The compounds were stored at −20° C. as 10 to 500 mM dimethyl sulfoxide (DMSO) stock solutions until the assay. IFN-α was purchased from Calbiochem (La Jolla, Calif.) and stored at −80° C.
(§2) (3) Inhibitory assay for HCV replicons. Cells were seeded at 1×10^4 (high-throughput screening assay) or 1×10^5 (regular assay) cells/well in 96- or 12-well plate, respectively, and incubated for 4 h. The medium was then aspirated and replaced with 0.1 (96-well plate) or 1 (12-well plate) mL of complete medium containing a single compound or combinations of compounds in serial concentration(s). The plates with compounds were incubated for 72 h and then assayed for luciferase expression (Promega). The EC50 of each compound was determined independently and used to determine the range of concentrations used for the combination experiments. All data are presented as the means±standard deviations (SD) from three independent experiments. The selectivity index (SI) was calculated as the ratio of the CC50 to the EC50.

[2] = test system: HCV genotype 2a replicon (JFH1); test: Inhibitory assay for HCV replicons (luciferase), genotype 2a JFH1; assay type: cell-based, Hepatitis C virus
Method: as §1, §2

Cytotoxicity assay (MTT) = assay type: cell-based; details: human, read-out: CC50
Method: (4) Cytotoxicity assay. The sensitivity of the cell lines to inhibitors was examined using a 3-(4,5-Dimethylthiazol-2-yl)-2,5-diphenyltetrazolium bromide (MTT) assay. Briefly, Huh-7.5 cells were plated at a density of 1×10^5 cells per well in 12-well plates containing 1 mL of culture medium for 4 h. Serial dilutions of the compounds or DMSO (negative control) were added, and the plates were incubated for an additional 72 h. The MTT reagent was then added to each well, and the plates were incubated for 3 h at 37° C. in a humidified 5% CO2 atmosphere before reading at a wavelength of 563 nm using an ELISA plate reader. All data are presented as the means +/−SD from four independent experiments.

HCV1b replicon = test: Serum shift assay; assay type: cell-based, Hepatitis C virus; details: for EC90 / EC50: Hepatitis C virus; for EC50: read-out: E50
Method: (9) Serum shift assay. In the serum shift assay, the inhibitory activity of DBPR110 was determined using replicon 1b in the presence of 10, 20, 30, 40 or 50% fetal bovine serum, or 10 or 40% of extracellular normal human serum.

[3] = test system: HCV genotype 1b Con1 replicon cells; test: Isolation of resistant replicons, genotype 1b; assay type: cell-based, Hepatitis C virus
Method: Selection of resistant replicon cells was performed by growing HCV genotype 1b Con1 and 2a JFH1 replicon cells in medium containing 0.2 or 200 nM and 60 nM or 1 μM of DBPR110, respectively. Medium containing the compound was added to monolayers of HCV1b-neo replicon cells at ˜25% confluence in the presence of 0.2 to 0.4 mg/mL of G418. Replicon cells maintained in the presence of dimethyl sulfoxide (DMSO) were used as a control. After 40 days, total RNA was isolated from both the control replicon cells and homogeneous cell lines containing compound using the TRIzol reagent (Invitrogen, Carlsbad, Calif.) according to the manufacturer's protocol. The RNA was amplified by reverse transcription-PCR (RT-PCR).
To characterize the resistance profile of DBPR110, cell clones resistant to DBPR110 were obtained by culturing HCV genotype 1b replicon cells in the presence of G418 and increasing concentrations of DBPR110 ranging from 50- to 50,000-fold the EC50 value.

[4] = Hepatitis C virus, JFH1 replicon cell line

## O=C(N[C@@H](C(=O)N1CCC[C@H]1c1ncc(-c2ccc(-c3ccc(-c4cnc([C@@H]5CCCN5C(=O)[C@H](NC(=O)C5CC5)c5ccccc5)s4)cc3)cc2)s1)c1ccccc1)C1CC1 [DBPR110]
[1]; Hepatitis C virus, HCV-1b replicon cell lines, single agent, combination study system, read-out: EC50
  EC50: 0.0033 ± 0.0008 nM
[1]; Hepatitis C virus, parental genotype 1b replicon cells, read-out: EC50
  EC50: 0.0039 nM
[1]; Hepatitis C virus, Genotype 1b, Con1 replicon cell line, read-out: Luciferase activity assay EC50
  EC50: 0.0039 nM
[1]; Hepatitis C virus, Genotype 1b, Con1 replicon cell line, read-out: Luciferase activity assay EC90
  EC90: 0.0082 ± 0.0018 nM
[1]; genotype 1b vs genotype 2a replicon cells
  susceptibility of genotype 1b greater than that of genotype 2a replicon cells: 74 fold
[2]; CC50/EC50, JFH1
  Selective index: >173,130
[2]; [4]
  EC50: 0.229 nM
  EC90: 0.465 ± 0.0966 nM
Cytotoxicity assay (MTT); Genotype 2a, JFH1
  CC50 at 72 h: > 50000 nM
Cytotoxicity assay (MTT); HCV-1b replicon cell lines, single agent
  CC50 at 72 h: > 50 nM
Cytotoxicity assay (MTT); Huh-7.5 cells, Genotype 1b, Con1
  CC50 at 72 h: > 50000 nM
Cytotoxicity assay (MTT); Infectious HCV, Genotype 2a, JFH1
  CC50 at 72 h: > 50000 nM
HCV1b replicon; 10% FBS
  Shift fold (EC50): 1.0 fold
  Shift fold (EC90): 1.0 fold
  EC90: 0.0093 ± 0.0034 nM
  EC50: 0.0043 ± 0.0008 nM
HCV1b replicon; 10% NHS (normal human serum)
  Shift fold (EC50): 1.0 fold
  Shift fold (EC90): 1.0 fold
  EC90: 0.0416 ± 0.0013 nM
  EC50: 0.0335 ± 0.0004 nM
HCV1b replicon; 20% FBS
  Shift fold (EC50): 1.9 fold
  Shift fold (EC90): 2.6 fold
  EC90: 0.0238 ± 0.011 nM
  EC50: 0.0081 ± 0.0016 nM
HCV1b replicon; 30% FBS
  Shift fold (EC50): 1.8 fold
  Shift fold (EC90): 2.3 fold
  EC90: 0.0216 ± 0.017 nM
  EC50: 0.0079 ± 0.0009 nM
HCV1b replicon; 40% FBS
  Shift fold (EC50): 3.1 fold
  Shift fold (EC90): 3.8 fold
  EC90: 0.0351 ± 0.0074 nM
  EC50: 0.0132 ± 0.0017 nM
HCV1b replicon; 40% NHS (normal human serum)
  Shift fold (EC50): 6.3 fold
  Shift fold (EC90): 14.1 fold
  EC90: 0.588 ± 0.0459 nM
  EC50: 0.211 ± 0.0063 nM
HCV1b replicon; 50% FBS
  Shift fold (EC50): 5.0 fold
  Shift fold (EC90): 4.5 fold
  EC90: 0.0419 ± 0.0072 nM
  EC50: 0.0215 ± 0.01 nM
[3]; DBPR110-resistant cells (DBPR110R), genotype 1b
  fold more resistant than parental cells: greater than 14,000 fold
[3]; Hepatitis C virus
  EC50: > 55 nM
